Measurements published in patent US6962928B2, “Tetrahydroquinoline derivatives for the inhibition of osteoporosis, estrogen dependent breast cancer, endometriosis and uterine fibrosis” (Eli Lilly and Company, priority 2001, dated 2005).

System: Ishikawa human endometrial tumor cells
Assay: Ishikawa alkaline phosphatase assay
Type: cell-based
Details: for EC50: Homo sapiens, Ishikawa; for EC50 / Agonist % Eff: agonist mode; for Agonist % Eff: % efficacy versus the response to Tamoxifen; for Antagonist % Eff: antagonist mode, % efficacy versus E2 (1 nM) alone
From the text: Ishikawa Alkaline Phosphatase Assay
Ishikawa human endometrial tumor cells are maintained in MEM (minimum essential medium, with Earle's salts and L-Glutamine, Gibco BRL, Gaithersburg, Md.), supplemented with 10% fetal bovine serum (FBS) (V/V), (Gibco BRL). One day prior to assay, growth media is changed to assay medium, DMEM/F-12 (3:1) (Dulbecco's Modified Eagle Medium: Nutrient Mixture F-12, 3:1 Mixture, phenol red-free, Gibco BRL) supplemented with 5% dextran coated charcoal stripped fetal bovine serum (DCC-FBS) (Hyclone, Logen, Utah), L-Glutamine (2 mM), MEM sodium pyruvate (1 mM), HEPES (N-[2-hydroxyethyl]piperazine-N′-[2-ethanesulfonic acid] 2 mM) all from Gibco BRL). After an overnight incubation, ishikawa cells are rinsed with Dulbecco's Phosphate Buffered Saline (1×) (D-PBS) without Ca^+2 and Mg^+2 (Gibco BRL), and trypsinized by a 3 minute incubation with 0.25% Trypsin/EDTA, phenol red-free (Gibco BRL). Cells are resuspended in assay medium and adjusted to 250,000 cells/ml. Approximately 25,000 cells in a 100 ul media are added to flat-bottom 96 wells microculture plates (Costar 3596) and incubated at 37° C. in a 5% CO2 humidified incubator for 24 hours. The next day, serial dilutions of compounds are prepared in assay medium (at 6 times the final concentration in the assay). The assay is run in dual mode, agonist and antagonist modes. For the agonist mode, plates receive 25 μl/well of assay medium followed by 25 μl/well of diluted compounds (at 6× the final concentrations). For the antagonist mode, plates receive 25 μl/well of 6 nM E2 (β-Estradiol, Sigma, St. Louis, Mo.) followed by 25 μl/well of diluted compounds (at 6× the final concentrations). After an additional 48-hour incubation at 37° C. in a 5% CO2 humidified incubator, media is aspirated from wells and 100 μl fresh assay medium is added to each microculture. Serial dilutions of compounds are prepared and added to the cells as described above. After an additional 72 hour incubation at 37° C. in a 5% CO2 humidified incubator, the assay is quenched by removing media and rinsing plates twice in Dulbecco's Phosphate Buffered Saline (1×) (D-PBS) (Gibco BRL). The plates are dried for 5 min and frozen at −70° C. for at least 1 hour. The plates are then removed from the freezer and allowed to thaw at room temperature. To each well, 100 μl of 1-Step™ PNPP (Pierce Chemical Company, Rockford, Ill.) is added. After a 20-minute incubation, plates are read on a spectophotometer at 405 nm. The data is fitted to a linear interpolation to derive EC50 (for agonist mode) or IC50 (for antagonist mode) values. For the agonist mode, a % efficacy for each compound is calculated versus the response to Tamoxifen. For the antagonist mode, a % efficacy for each compound is calculated versus E2 (1 nM) alone.

SMILES	EC50 [nM]	Agonist % Eff [%]	Antagonist % Eff [%]
Oc1ccc(C2CCc3cc(O)ccc3N2c2ccc(OCCN3CCCCC3)cc2)cc1 (stereo not drawn) [Example 3]	262	117	−0.2
Oc1ccc(C2CCc3cc(O)ccc3N2c2ccc(OCCN3CCCC3)cc2)cc1 (stereo not drawn) [Example 4]	161	36	40
